Assay results: ChEMBL document CHEMBL3046319, “PCR-RFLP detection of the E198A mutation conferring resistance to benzimidazoles in field isolates of Monilinia laxa from Greece” (Crop Prot, 2012)

Columns and labels:
Assay type in all cases: functional
Monilinia laxa [1] = experiment: Fungicidal activity against Monilinia laxa isolate MLA1 assessed as mycelial growth at 0.5 ug/ml at 25 degC after 4 days
Monilinia laxa [2] = experiment: Fungicidal activity against Monilinia laxa isolate MLP2 assessed as mycelial growth at 0.5 ug/ml at 25 degC after 4 days
Monilinia laxa [3] = experiment: Fungicidal activity against Monilinia laxa isolate MLX1 assessed as mycelial growth at 0.5 ug/ml at 25 degC after 4 days
Monilinia laxa [4] = experiment: Fungicidal activity against Monilinia laxa isolate MLP4 assessed as mycelial growth at 0.5 ug/ml at 25 degC after 4 days
Monilinia laxa [5] = experiment: Fungicidal activity against Monilinia laxa isolate MLG1 assessed as mycelial growth at 0.5 ug/ml at 25 degC after 4 days
Monilinia laxa [6] = experiment: Fungicidal activity against Monilinia laxa isolate MLK1 assessed as mycelial growth at 0.5 ug/ml at 25 degC after 4 days
Monilinia laxa [7] = experiment: Fungicidal activity against Monilinia laxa isolate MLK12 assessed as mycelial growth at 0.5 ug/ml at 25 degC after 4 days
Monilinia laxa [8] = experiment: Fungicidal activity against Monilinia laxa isolate MLBO2 assessed as mycelial growth at 0.5 ug/ml at 25 degC after 4 days
Monilinia laxa [9] = experiment: Fungicidal activity against Monilinia laxa isolate MLC2 assessed as mycelial growth at 0.5 ug/ml at 25 degC after 4 days
Monilinia laxa [10] = experiment: Fungicidal activity against Monilinia laxa isolate MLX5 assessed as mycelial growth at 0.5 ug/ml at 25 degC after 4 days
Monilinia laxa [11] = experiment: Fungicidal activity against Monilinia laxa isolate MLBO5 assessed as mycelial growth at 0.5 ug/ml at 25 degC after 4 days
Monilinia laxa [12] = experiment: Fungicidal activity against Monilinia laxa isolate MLP4 assessed as mycelial growth at 5 ug/ml at 25 degC after 4 days
Monilinia laxa [13] = experiment: Fungicidal activity against Monilinia laxa isolate MLX5 assessed as mycelial growth at 5 ug/ml at 25 degC after 4 days
Monilinia laxa [14] = experiment: Fungicidal activity against Monilinia laxa isolate MLBO5 assessed as mycelial growth at 5 ug/ml at 25 degC after 4 days
Monilinia laxa [15] = experiment: Fungicidal activity against Monilinia laxa isolate MLP2 assessed as mycelial growth at 5 ug/ml at 25 degC after 4 days
Monilinia laxa [16] = experiment: Fungicidal activity against Monilinia laxa isolate MLBO2 assessed as mycelial growth at 5 ug/ml at 25 degC after 4 days
Monilinia laxa [17] = experiment: Fungicidal activity against Monilinia laxa isolate MLK1 assessed as mycelial growth at 5 ug/ml at 25 degC after 4 days
Monilinia laxa [18] = experiment: Fungicidal activity against Monilinia laxa isolate MLC2 assessed as mycelial growth at 5 ug/ml at 25 degC after 4 days
Monilinia laxa [19] = experiment: Fungicidal activity against Monilinia laxa isolate MLA1 assessed as mycelial growth at 5 ug/ml at 25 degC after 4 days
Monilinia laxa [20] = experiment: Fungicidal activity against Monilinia laxa isolate MLX1 assessed as mycelial growth at 5 ug/ml at 25 degC after 4 days
Monilinia laxa [21] = experiment: Fungicidal activity against Monilinia laxa isolate MLG1 assessed as mycelial growth at 5 ug/ml at 25 degC after 4 days
Monilinia laxa [22] = experiment: Fungicidal activity against Monilinia laxa isolate MLK12 assessed as mycelial growth at 5 ug/ml at 25 degC after 4 days
Monilinia laxa [23] = experiment: Fungicidal activity against Monilinia laxa isolate MLG1 assessed as mycelial growth at 0.1 ug/ml at 25 degC after 4 days
Monilinia laxa [24] = experiment: Fungicidal activity against Monilinia laxa isolate MLBO2 assessed as mycelial growth at 0.1 ug/ml at 25 degC after 4 days
Monilinia laxa [25] = experiment: Fungicidal activity against Monilinia laxa isolate MLK1 assessed as mycelial growth at 0.1 ug/ml at 25 degC after 4 days
Monilinia laxa [26] = experiment: Fungicidal activity against Monilinia laxa isolate MLP4 assessed as mycelial growth at 0.1 ug/ml at 25 degC after 4 days
Monilinia laxa [27] = experiment: Fungicidal activity against Monilinia laxa isolate MLC2 assessed as mycelial growth at 0.1 ug/ml at 25 degC after 4 days
Monilinia laxa [28] = experiment: Fungicidal activity against Monilinia laxa isolate MLA1 assessed as mycelial growth at 0.1 ug/ml at 25 degC after 4 days
Monilinia laxa [29] = experiment: Fungicidal activity against Monilinia laxa isolate MLX5 assessed as mycelial growth at 0.1 ug/ml at 25 degC after 4 days
Monilinia laxa [30] = experiment: Fungicidal activity against Monilinia laxa isolate MLBO5 assessed as mycelial growth at 0.1 ug/ml at 25 degC after 4 days
Monilinia laxa [31] = experiment: Fungicidal activity against Monilinia laxa isolate MLX1 assessed as mycelial growth at 0.1 ug/ml at 25 degC after 4 days
Monilinia laxa [32] = experiment: Fungicidal activity against Monilinia laxa isolate MLP2 assessed as mycelial growth at 0.1 ug/ml at 25 degC after 4 days
Monilinia laxa [33] = experiment: Fungicidal activity against Monilinia laxa isolate MLK12 assessed as mycelial growth at 0.1 ug/ml at 25 degC after 4 days
Monilinia laxa [34] = experiment: Fungicidal activity against Monilinia laxa isolate MLA1 assessed as mycelial growth at 0.05 ug/ml at 25 degC after 4 days
Monilinia laxa [35] = experiment: Fungicidal activity against Monilinia laxa isolate MLC2 assessed as mycelial growth at 0.05 ug/ml at 25 degC after 4 days
Monilinia laxa [36] = experiment: Fungicidal activity against Monilinia laxa isolate MLP4 assessed as mycelial growth at 0.05 ug/ml at 25 degC after 4 days
Monilinia laxa [37] = experiment: Fungicidal activity against Monilinia laxa isolate MLBO2 assessed as mycelial growth at 0.05 ug/ml at 25 degC after 4 days
Monilinia laxa [38] = experiment: Fungicidal activity against Monilinia laxa isolate MLG1 assessed as mycelial growth at 0.05 ug/ml at 25 degC after 4 days
Monilinia laxa [39] = experiment: Fungicidal activity against Monilinia laxa isolate MLK12 assessed as mycelial growth at 0.05 ug/ml at 25 degC after 4 days
Monilinia laxa [40] = experiment: Fungicidal activity against Monilinia laxa isolate MLX5 assessed as mycelial growth at 0.05 ug/ml at 25 degC after 4 days
Monilinia laxa [41] = experiment: Fungicidal activity against Monilinia laxa isolate MLBO5 assessed as mycelial growth at 0.05 ug/ml at 25 degC after 4 days
Monilinia laxa [42] = experiment: Fungicidal activity against Monilinia laxa isolate MLK1 assessed as mycelial growth at 0.05 ug/ml at 25 degC after 4 days
Monilinia laxa [43] = experiment: Fungicidal activity against Monilinia laxa isolate MLP2 assessed as mycelial growth at 0.05 ug/ml at 25 degC after 4 days
Monilinia laxa [44] = experiment: Fungicidal activity against Monilinia laxa isolate MLX1 assessed as mycelial growth at 0.05 ug/ml at 25 degC after 4 days
Monilinia laxa [45] = experiment: Fungicidal activity against Monilinia laxa isolate MLK1 assessed as mycelial growth at 1 ug/ml at 25 degC after 4 days
Monilinia laxa [46] = experiment: Fungicidal activity against Monilinia laxa isolate MLBO2 assessed as mycelial growth at 1 ug/ml at 25 degC after 4 days
Monilinia laxa [47] = experiment: Fungicidal activity against Monilinia laxa isolate MLP4 assessed as mycelial growth at 1 ug/ml at 25 degC after 4 days
Monilinia laxa [48] = experiment: Fungicidal activity against Monilinia laxa isolate MLK12 assessed as mycelial growth at 1 ug/ml at 25 degC after 4 days
Monilinia laxa [49] = experiment: Fungicidal activity against Monilinia laxa isolate MLX5 assessed as mycelial growth at 1 ug/ml at 25 degC after 4 days
Monilinia laxa [50] = experiment: Fungicidal activity against Monilinia laxa isolate MLX1 assessed as mycelial growth at 1 ug/ml at 25 degC after 4 days
Monilinia laxa [51] = experiment: Fungicidal activity against Monilinia laxa isolate MLA1 assessed as mycelial growth at 1 ug/ml at 25 degC after 4 days
Monilinia laxa [52] = experiment: Fungicidal activity against Monilinia laxa isolate MLC2 assessed as mycelial growth at 1 ug/ml at 25 degC after 4 days
Monilinia laxa [53] = experiment: Fungicidal activity against Monilinia laxa isolate MLBO5 assessed as mycelial growth at 1 ug/ml at 25 degC after 4 days
Monilinia laxa [54] = experiment: Fungicidal activity against Monilinia laxa isolate MLG1 assessed as mycelial growth at 1 ug/ml at 25 degC after 4 days
Monilinia laxa [55] = experiment: Fungicidal activity against Monilinia laxa isolate MLP2 assessed as mycelial growth at 1 ug/ml at 25 degC after 4 days

| Compound | Activity (Monilinia laxa [1]) [%] | Activity (Monilinia laxa [2]) [%] | Activity (Monilinia laxa [3]) [%] | Activity (Monilinia laxa [4]) [%] | Activity (Monilinia laxa [5]) [%] | Activity (Monilinia laxa [6]) [%] | Activity (Monilinia laxa [7]) [%] | Activity (Monilinia laxa [8]) [%] | Activity (Monilinia laxa [9]) [%] | Activity (Monilinia laxa [10]) [%] | Activity (Monilinia laxa [11]) [%] | Activity (Monilinia laxa [34]) [%] | Activity (Monilinia laxa [35]) [%] | Activity (Monilinia laxa [36]) [%] | Activity (Monilinia laxa [37]) [%] | Activity (Monilinia laxa [38]) [%] | Activity (Monilinia laxa [39]) [%] | Activity (Monilinia laxa [40]) [%] | Activity (Monilinia laxa [41]) [%] | Activity (Monilinia laxa [42]) [%] | further results |
| --- | --- | --- | --- | --- | --- | --- | --- | --- | --- | --- | --- | --- | --- | --- | --- | --- | --- | --- | --- | --- | --- |
| CC(C)NC(=O)N1CC(=O)N(c2cc(Cl)cc(Cl)c2)C1=O [IPRODIONE] | 30.22 | 28.12 | 21.88 | 45.23 | 35.42 | 57.14 | 45.46 | 40.44 | 46.61 | 54.55 | 0 | – | – | – | – | – | – | – | – | – | – |
| COC(=O)NC(=S)Nc1ccccc1NC(=S)NC(=O)OC [THIOPHANATE METHYL] | – | – | – | – | – | – | – | – | – | – | – | – | – | – | – | – | – | – | – | – | Activity (Monilinia laxa [12]): 93.75%; Activity (Monilinia laxa [13]): 0%; Activity (Monilinia laxa [14]): 0%; Activity (Monilinia laxa [15]): 0%; Activity (Monilinia laxa [16]): 0%; Activity (Monilinia laxa [17]): 100%; Activity (Monilinia laxa [18]): 95.25%; Activity (Monilinia laxa [19]): 0%; Activity (Monilinia laxa [20]): 100%; Activity (Monilinia laxa [21]): 0%; Activity (Monilinia laxa [22]): 100% |
| CC1(C(=O)Nc2ccc(O)c(Cl)c2Cl)CCCCC1 [FENHEXAMID] | – | – | – | – | – | – | – | – | – | – | – | – | – | – | – | – | – | – | – | – | Activity (Monilinia laxa [23]): 0%; Activity (Monilinia laxa [24]): 10.03%; Activity (Monilinia laxa [25]): 17.65%; Activity (Monilinia laxa [26]): 45.83%; Activity (Monilinia laxa [27]): 50.35%; Activity (Monilinia laxa [28]): 23.05%; Activity (Monilinia laxa [29]): 50.34%; Activity (Monilinia laxa [30]): 21.05%; Activity (Monilinia laxa [31]): 21.82%; Activity (Monilinia laxa [32]): 25%; Activity (Monilinia laxa [33]): 60.05% |
| COC(=O)N(OC)c1ccccc1COc1ccn(-c2ccc(Cl)cc2)n1 [PYRACLOSTROBIN] | – | – | – | – | – | – | – | – | – | – | – | 36.82 | 34.48 | 47.32 | 40.65 | 25 | 37.5 | 51.15 | 49.62 | 50.05 | Activity (Monilinia laxa [43]): 50%; Activity (Monilinia laxa [44]): 29.41% |
| CC(C)(C)C(O)(CCc1ccc(Cl)cc1)Cn1cncn1 (centres undefined) [TEBUCONAZOLE] | – | – | – | – | – | – | – | – | – | – | – | 47.41 | 39.39 | 35.71 | 48.34 | 25.3 | 30 | 65.45 | 49.65 | 22.24 | Activity (Monilinia laxa [43]): 34.29%; Activity (Monilinia laxa [44]): 30.77% |
| CCC(C)(NC(=O)c1cc(Cl)c(C)c(Cl)c1)C(=O)CCl (centres undefined) [ZOXAMIDE] | 48.95 | 59.09 | 0 | 0 | 36.05 | 0 | 0 | 43.33 | 0 | 39.09 | 44 | – | – | – | – | – | – | – | – | – | – |
| N#Cc1c[nH]cc1-c1cccc2c1OC(F)(F)O2 [FLUDIOXONIL] | – | – | – | – | – | – | – | – | – | – | – | 16.22 | 18.3 | 13.89 | 17.99 | 15.05 | 12.78 | 17.5 | 11.01 | 13.66 | Activity (Monilinia laxa [43]): 16.05%; Activity (Monilinia laxa [44]): 21.09% |
| O=C(Nc1ccccc1-c1ccc(Cl)cc1)c1cccnc1Cl [BOSCALID] | 42.73 | 66.82 | 60.03 | 0 | 0 | 62.05 | 45.05 | 36.67 | 0 | 0 | 0 | – | – | – | – | – | – | – | – | – | – |
| CCCCNC(=O)n1c(NC(=O)OC)nc2ccccc21 [BENOMYL] | – | – | – | – | – | – | – | – | – | – | – | – | – | – | – | – | – | – | – | – | Activity (Monilinia laxa [45]): 100%; Activity (Monilinia laxa [46]): 0%; Activity (Monilinia laxa [47]): 100%; Activity (Monilinia laxa [48]): 100%; Activity (Monilinia laxa [49]): 0%; Activity (Monilinia laxa [50]): 100%; Activity (Monilinia laxa [51]): 0%; Activity (Monilinia laxa [52]): 80.01%; Activity (Monilinia laxa [53]): 0%; Activity (Monilinia laxa [54]): 0%; Activity (Monilinia laxa [55]): 0% |
